Measured values as given in patent publication US9174998B2, “(6S,9aS)-N-benzyl-6-[(4-hydroxyphenyl)methyl]-4,7-dioxo-8-({6-[3-(piperazin-1-yl)azetidin-1-yl]pyridin-2-yl}methyl)-2-(prop-2-en-1-yl)-octahydro-1H-pyrazino[2,1-c][1,2,4]triazine-1-carboxamide compound” (Eisai R&D Management Co., Ltd., priority 2013, dated 2015).
Values after ≈ are worked out from the molar mass of the structure shown.

Columns and labels:
Wnt signal = test: Detection of Wnt signal (TOPglow luciferase reporter, LiCl-stimulated); assay type: cell-based; conditions: Homo sapiens; HEK293 clone carrying pNeo-TOP reporter; LiCl stimulation; luciferase luminescence; read-out: Test Example 1 IC50 (concentration required for inhibiting the Wnt signal activity by 50%)
How it was run: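 Stable HEK293 clone carrying a TOPglow TCF/Wnt-responsive luciferase reporter, stimulated with 80 mM LiCl in the diluted sample medium alongside compound; luminescence read with Bright-Glo 6 h after addition. IC50 derived from activity scaled between LiCl-only wells (100%) and wells lacking both LiCl and sample (0%).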

[1] = Evaluation of solubility (Examples 25 and 26), visual judgment; assay type: physicochemical; conditions: aqueous buffer, thermodynamic from solid; Dulbecco's phosphate-buffered saline pH 7; about 10 mg sample, test solution added in 0.1 mL portions until dissolved
Experimental: About 10 mg of a sample was weighed accurately and placed in a 10-mL polypropylene test tube, a test solution shown below was added thereto by portions (0.1 mL) until the sample was dissolved completely. When the test solution was added, the mixed solution was stirred intermittently in a range from about 30 seconds to 3 minutes using a Vortex mixer every time the test solution was added. The solubility (mM) of the sample was calculated from the added amount of the test solution required until the presence of any solid material was not observed by visual judgment.
Test solution: GIBCO (registered trade name) (Dulbecco's phosphate-buffered saline having a pH value of 7, Invitrogen Corporation)

[2] = Evaluation of metabolic stability; assay type: in vitro ADME, human; conditions: 0.2 mg/mL HLM, 0.1 μM test substance, 15 minutes at 37° C., with vs without NADPH production
How it was run: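 Pooled human liver microsomes (0.2 mg/mL) in 0.1 M potassium phosphate pH 7.4 with EDTA, MgCl2 and an NADPH-generating system (NADP+, glucose-6-phosphate, G6PDH). Residual ratio by LC-MS/MS, comparing with versus without NADPH generation.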

[3] = Evaluation of solubility (DMSO stock into PBS, HPLC-UV); assay type: physicochemical; conditions: aqueous buffer, kinetic from dmso stock; Dulbecco's phosphate-buffered saline pH 7, room temperature, about 15 minutes shaking; values greater than 200 μM regarded as 200 μM; read-out: Test Example 3 solubility
How it was run: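 Kinetic solubility: 20 mM DMSO stock spiked into Dulbecco's PBS pH 7, shaken about 15 min at room temperature, then suction-filtered; filtrate quantified by HPLC-UV against a 200 μM DMSO standard. Values above 200 μM are capped at 200 μM.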

[4] = PAMPA test (parallel artificial membrane permeability assay); assay type: in vitro ADME; conditions: phosphate buffer pH 6.8, about 200 μM, about 5 hours, room temperature, read-out: Test Example 4 membrane permeation coefficient Pe
How it was run: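 Compounds at about 200 μM in pH 6.8 phosphate buffer with about 1% DMSO on the donor side. Transport across a lipid-precoated PVDF membrane with shaking at 350 rpm, room temperature, about 5 h. Donor and acceptor concentrations measured by HPLC-UV; Pe (cm/s) calculated from these.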

[5] = tested on: human chronic myologenous leukemia cell strain K562; test: Anti-tumor effect in human K562 subcutaneous transplantation model; conditions: day 28

SMILES	IC50 (Wnt signal)	Test Example 2 residual ratio of the test substance [2]	solubility [3]	Papp [4]	solubility [1]	the number of individuals in which a tumor was not observed by visual judgment/total number of mice ([5]; Compound of Example 1 35 mg/kg oral bid for 5 days combined with Dasatinib 5 mg/kg qd, * P 0.05 or less vs Dasatinib alone (Fisher's test))	the number of individuals in which a tumor was not observed by visual judgment/total number of mice ([5]; Compound of Example 1 50 mg/kg oral bid for 5 days combined with Dasatinib 5 mg/kg qd, *** P 0.01 or less vs Dasatinib alone (Fisher's test))	the number of individuals in which a tumor was not observed by visual judgment/total number of mice ([5]; Compound of Example 1 75 mg/kg oral bid for 5 days combined with Dasatinib 5 mg/kg qd, *** P 0.01 or less vs Dasatinib alone (Fisher's test))	the number of individuals in which a tumor was not observed by visual judgment/total number of mice ([5]; Dasatinib 5 mg/kg alone, oral qd, 5 days on/2 days off, two cycles)
C=CCN1CC(=O)N2C(CN(Cc3cccc(N4CC(N5CCN(CC)CC5)C4)n3)C(=O)[C@@H]2Cc2ccc(OP(=O)(O)O)cc2)N1C(=O)NCc1ccccc1 (stereo partly drawn) [Example 26, 4-(((6S,9aS)-1-(Benzylcarbamoyl)-8-((6-(3-(4-ethylpiperazin-1-yl)azetidin-1-yl)pyridin-2-yl)methyl-4,7-dioxo-2-(prop-2-en-1-yl)-octahydro-1H-pyrazino[2,1-c][1,2,4]triazin-6-yl)methyl)phenyldihydrogen phosphate]	1190 nM	–	–	–	42000 to 62000 µM	–	–	–	–
C=CCN1CC(=O)N2[C@@H](Cc3ccc(O)cc3F)C(=O)N(Cc3cccc(N4CC(N5CCN(CC)CC5)C4)n3)C[C@@H]2N1C(=O)NCc1ccccc1 [Example 1, (6S,9aS)-N-Benzyl-8-((6-(3-(4-ethylpiperazin-1-yl)azetidin-1-yl)pyridin-2-yl)methyl)-6-((2-fluoro-4-hydroxyphenyl)methyl)-4,7-dioxo-2-(prop-2-en-1-yl)-octahydro-1H-pyrazino[2,1-c][1,2,4]triazine-1-carboxamide]	60 nM	47%	197 µM (≈ 143 µg/mL)	2.01 ×10⁻⁶ cm/s	–	6/10*	9/10***	10/10***	–
C=CCN1CC(=O)N2[C@@H](Cc3ccc(OP(=O)(O)O)cc3F)C(=O)N(Cc3cccc(N4CC(N5CCN(CC)CC5)C4)n3)C[C@@H]2N1C(=O)NCc1ccccc1 [Example 25, 4-(((6S,9aS)-1-(Benzylcarbamoyl)-8-((6-(3-(4-ethylpiperazin-1-yl)azetidin-1-yl)pyridin-2-yl)methyl)-4,7-dioxo-2-(prop-2-en-1-yl)-octahydro-1H-pyrazino[2,1-c][1,2,4]triazin-6-yl)methyl)-3-fluorophenyl dihydrogen phosphate]	180 nM	–	–	–	≥ 124000 µM	–	–	–	–
Cc1nc(Nc2ncc(C(=O)Nc3c(C)cccc3Cl)s2)cc(N2CCN(CCO)CC2)n1 [Dasatinib, reference compound]	–	–	–	–	–	–	–	–	0/9
C=CCN1CC(=O)N2[C@@H](Cc3ccc(O)cc3)C(=O)N(Cc3cccc(N4CC(N5CCN(C)[C@H](C)C5)C4)n3)C[C@@H]2N1C(=O)NCc1ccccc1 [Example 28, (6S,9aS)-N-Benzyl-8-((6-(3-((3R)-3,4-dimethylpiperazin-1-yl)azetidin-1-yl)pyridin-2-yl)methyl)-6-((4-hydroxyphenyl)methyl)-4,7-dioxo-2-(prop-2-en-1-yl)-octahydro-1H-pyrazino[2,1-c][1,2,4]triazine-1-carboxamide]	380 nM	55%	198 µM (≈ 140 µg/mL)	0.95 ×10⁻⁶ cm/s	–	–	–	–	–

The next lines start with results.

IC50 (Wnt signal)	Test Example 2 residual ratio of the test substance [2]	solubility [3]	Papp [4]	SMILES	solubility [1]	the number of individuals in which a tumor was not observed by visual judgment/total number of mice ([5]; Compound of Example 1 35 mg/kg oral bid for 5 days combined with Dasatinib 5 mg/kg qd, * P 0.05 or less vs Dasatinib alone (Fisher's test))	the number of individuals in which a tumor was not observed by visual judgment/total number of mice ([5]; Compound of Example 1 50 mg/kg oral bid for 5 days combined with Dasatinib 5 mg/kg qd, *** P 0.01 or less vs Dasatinib alone (Fisher's test))	the number of individuals in which a tumor was not observed by visual judgment/total number of mice ([5]; Compound of Example 1 75 mg/kg oral bid for 5 days combined with Dasatinib 5 mg/kg qd, *** P 0.01 or less vs Dasatinib alone (Fisher's test))	the number of individuals in which a tumor was not observed by visual judgment/total number of mice ([5]; Dasatinib 5 mg/kg alone, oral qd, 5 days on/2 days off, two cycles)
250 nM	55%	195 µM (≈ 138 µg/mL)	1.27 ×10⁻⁶ cm/s	C=CCN1CC(=O)N2[C@@H](Cc3ccc(O)cc3)C(=O)N(Cc3cccc(N4CC(N5CCN(C)C[C@@H]5C)C4)n3)C[C@@H]2N1C(=O)NCc1ccccc1 [Example 6, (6S,9aS)-N-Benzyl-8-((6-(3-((2S)-2,4-dimethylpiperazin-1-yl)azetidin-1-yl)pyridin-2-yl)methyl)-6-((4-hydroxyphenyl)methyl)-4,7-dioxo-2-(prop-2-en-1-yl)-octahydro-1H-pyrazino[2,1-c][1,2,4]triazine-1-carboxamide]	–	–	–	–	–
190 nM	28%	190 µM (≈ 139 µg/mL)	1.7 ×10⁻⁶ cm/s	C=CCN1CC(=O)N2[C@@H](Cc3ccc(O)cc3F)C(=O)N(Cc3ccc(F)c(N4CC(N(C)CCN(C)C)C4)n3)C[C@@H]2N1C(=O)NCc1ccccc1 [Reference Example 6, (6S,9aS)-N-Benzyl-8-((6-(3-((2-(dimethylamino)ethyl)(methyl)amino)azetidin-1-yl)-5-fluoropyridin-2-yl)methyl)-6-((2-fluoro-4-hydroxyphenyl)methyl)-4,7-dioxo-2-(prop-2-en-1-yl)-octahydro-1H-pyrazino[2,1-c][1,2,4]triazine-1-carboxamide]	–	–	–	–	–
